From patent US9018187B2, “Cationic lipids and methods for the delivery of therapeutic agents” (Protiva Biotherapeutics, Inc., priority 2009, dated 2015) come the findings set out here.

Entries after “also recorded” stand apart in the source; their conditions may differ.

The nature of series [1]: Characterization of SNALP formulations (size, polydispersity, encapsulation). The format is physicochemical. To be noted: Table 5; for Initial Encaps. (%): 7:54 SNALP (PEG750-C-DMA 6.76 | cationic 54.06 | Chol 32.43 | DPPC 6.75 mol %) with PLK-1 siRNA; for Finished Product Encaps. (%) / Finished Product Poly / Finished Product Z-Avg (nm): 7:54 SNALP with PLK-1 siRNA. As for the experimental part:
In the context of nucleic acids, full encapsulation may be determined by performing a membrane-impermeable fluorescent dye exclusion assay, which uses a dye that has enhanced fluorescence when associated with nucleic acid. Specific dyes such as OliGreen® and RiboGreen® (Invitrogen Corp.; Carlsbad, Calif.) are available for the quantitative determination of plasmid DNA, single-stranded deoxyribonucleotides, and/or single- or double-stranded ribonucleotides. Encapsulation is determined by adding the dye to a liposomal formulation, measuring the resulting fluorescence, and comparing it to the fluorescence observed upon addition of a small amount of nonionic detergent. Detergent-mediated disruption of the liposomal bilayer releases the encapsulated nucleic acid, allowing it to interact with the membrane-impermeable dye. Nucleic acid encapsulation may be calculated as E=(Io−I)Io, where I and Io refer to the fluorescence intensities before and after the addition of detergent (see, Wheeler et al., Gene Ther., 6:271-281 (1999)). […]
(§1) Each SNALP formulation was administered by intravenous (IV) injection at 3 mg/kg into Scid mice containing Hep3B tumors (n=4 per group). Tumor tissue was colleted at 24 hours after SNALP administration and tumor PLK-1 mRNA levels were evaluated by performing a PLK-1/GAPDH QG assay. Table 5 provides a characterization of the SNALP formulations used in this in vivo study.

The next series relates to tumor PLK-1 mRNA. Put plainly: Tumor PLK-1 mRNA knockdown by 7:54 SNALP in Scid mice containing Hep3B tumors. The following applies: FIG. 11, 7:54 SNALP with PLK-1 siRNA, IV 3 mg/kg, 24 hours, PLK-1/GAPDH QG assay. Type of series: in vivo, mouse. As for the experimental part:
7:54 SNALP formulations containing encapsulated PLK-1 siRNA were prepared with the following cationic lipids: (1) DLinDMA; (2) TLinDMA; (3) DLin-C1K-DMA (“DLin-K-DMA”); (4) DPanDMA; (5) DPan-C2-DMA (“C2-DPanDMA”); (6) DPan-C2K-DMA; (7) DPan-C3K-DMA; and (8) DPan-C1K6-DMA.
as §1

The subject of a further series is liver ApoB mRNA. In words: Liver ApoB mRNA knockdown by 1:57 SNALP with APOB siRNA in mice. The format is in vivo, mouse. The following applies: 1:57 SNALP, 6:1 L:D, IV 0.1 mg/kg, female Balb/c mice, 48 hours. As for the experimental part:
Each SNALP formulation was administered by intravenous (IV) injection at 0.1 mg/kg into female Balb/c mice (n=3 per group). Plasma total cholesterol and/or liver ApoB mRNA levels were evaluated at 48 hours after SNALP administration. For dose response studies, SNALP formulations were administered by IV injection at 0.01 mg/kg, 0.03 mg/kg, or 0.1 mg/kg into female Balb/c mice (n=3 per group). Liver ApoB mRNA levels were evaluated at 48 hours after SNALP administration.
1:57 SNALP formulations containing encapsulated APOB siRNA at a 6:1 lipid:drug (L:D) ratio were prepared with the following cationic lipids: (1) DLinDMA; (2) Linoleyl/Linolenyl DMA (“Lin/LenDMA”); (3) DPanDMA; (4) TLinDMA; (5) Linoleyl/C6:0 DMA (“Lin/6:0”); (6) C2-DPanDMA; (7) DLin-C2K-Pip (30H); and (8) DHep-C2K-DMA.
Each SNALP formulation was administered by intravenous (IV) injection at 0.1 mg/kg into female Balb/c mice (n=3 per group). Livers were colleted at 48 hours after SNALP administration and liver ApoB mRNA levels were evaluated by performing an ApoB/GAPDH QG assay. Table 2 provides a characterization of the SNALP formulations used in this in vivo study.
In another study, 1:57 SNALP formulations containing encapsulated APOB siRNA at a 6:1 L:D ratio were prepared with the following cationic lipids: (1) DLinDMA; (2) C2-DPanDMA; (3) DPan-C2K-DMA; (4) DPan-C3K-DMA; and (5) DPan-C1K6-DMA.
Each SNALP formulation was administered by intravenous (IV) injection at 0.1 mg/kg into female Balb/c mice (n=3 per group). Livers were colleted at 48 hours after SNALP administration and liver ApoB mRNA levels were evaluated by performing an ApoB/GAPDH QG assay. Table 3 provides a characterization of the SNALP formulations used in this in vivo study.
For dose response studies, SNALP formulations were administered by IV injection at 0.01 mg/kg, 0.033 mg/kg, or 0.1 mg/kg into female Balb/c mice (n=3 per group). Liver ApoB mRNA levels were evaluated at 48 hours after SNALP administration by a branched DNA assay (QuantiGene assay) to assess ApoB mRNA relative to the housekeeping gene GAPDH.

Series [2] is described as follows: TNS assay, apparent pKa of cationic lipid in 1:57 SNALP. To be noted: 1:57 SNALP formulation containing encapsulated APOB siRNA.
Method: 1:57 SNALP formulations containing encapsulated APOB siRNA were prepared as described in Section VI above with the following cationic lipids: (1) DLinDMA; (2) DLenDMA; (3) γ-DLenDMA (“g-DLenDMA”); (4) C2-DLinDAP; (5) DLinPip (4-OH); (6) DLinPip; (7) DLinPip (3-OH); (8) DLinDEA; (9) DDocDMA; (10) DAraDMA; (11) TLinDMA; (12) DLin-C2K Pip (30H); (13) DHep-C2K-DMA; (14) DPanDMA; (15) C2-DPanDMA (“DPan-C2-DMA”); (16) DPan-C2K-DMA; (17) DPan-C3K-DMA; (18) DPan-K6-DMA (“DPan-C1K6-DMA”); and (19) C2-TLinDMA.
The apparent pKa of the cationic lipids present in these SNALP formulations was determined using a 2-(p-toluidinyl)-naphthalene-6-sodium sulfonate (TNS) assay. TNS is a negatively-charged indicator of membrane potential that is electrostatically attracted to positively charged membranes (see, Bailey and Cullis, Biochemistry, 33 12573-80 (1994)). Subsequent adsorption to the lipid membrane results in the immediate environment of the TNS becoming more lipophilic, removing the water molecules that otherwise quench TNS fluorescence. As a result, TNS measures the surface potential of the particle, wherein the more positive the surface potential, the greater the level of fluorescence. The surface pKa values of each SNALP formulation were determined by varying the local pH in the presence of TNS. By plotting fluorescence versus pH, the pKa of the cationic lipid can be estimated in the particle as the pH where fluorescence equals 50% of total fluorescence.

In the case of `CC(C)CCCC(C)CCCC(C)CCCC(C)CCOCC(CCN(C)C)OCCC(C)CCCC(C)CCCC(C)CCCC(C)C` (centres unmarked) [Compound C2-DPanDMA, 1,2-Diphytanyloxy-(N,N-dimethyl)-butyl-4-amine], in series [1], the “Initial Encaps. (%)” value was 86%, the “Finished Product Encaps. (%)” value is reported as 100%, the “Finished Product Poly” value was 0.06 and the “Finished Product Z-Avg (nm)” value was found to be 81 nm. Also, the “tumor PLK-1 mRNA silencing activity” value in the series with tumor PLK-1 mRNA was “no difference in silencing activity”. Also, the “ApoB silencing activity (liver ApoB mRNA)” value in the series with liver ApoB mRNA (Example 16, FIG. 8, ApoB/GAPDH QG assay) was “more potent compared to DLinDMA and substantially more potent compared to DPanDMA”. Further, in the series on liver ApoB mRNA (Example 16 second study, FIG. 9, 0.1 mg/kg), the “ApoB silencing activity (liver ApoB mRNA)” value is recorded as “more potent compared to DLinDMA; also recorded: greatest activity of all the phytanyl-containing cationic lipids tested”. In addition, the pKa in series [2] is about 6.1.

On to `CC(C)CCCC(C)CCCC(C)CCCC(C)CCOCC(CN(C)C)OCCC(C)CCCC(C)CCCC(C)CCCC(C)C` (centres unmarked) [DPanDMA, 1,2-Diphytanyloxy-3-(N,N-dimethyl)-propylamine], for which, in series [1], the “Initial Encaps. (%)” value was found to be 75%, the “Finished Product Encaps. (%)” value is 100%, the “Finished Product Poly” value is 0.08 and the “Finished Product Z-Avg (nm)” value stood at 76 nm. In addition, the “tumor PLK-1 mRNA silencing activity” value in the series with tumor PLK-1 mRNA was “no difference in silencing activity”. In addition, the pKa in series [2] came out at 5.5.
